Reference: patent publication US8715714B2, “Uses of rare earth elements for hair improvement” (Micellbio Co., Ltd., priority 2006, dated 2014)
Entries after “also recorded” stand apart in the source; their conditions may differ.

Legend:
Format in all cases: cell-based
tyrosinase [1] = assay: Expression of tyrosinase in Sk-mel-31 cells by Western blotting; settings: human melanoma cell line; versus control group; FIG. 9
Description: (§1) Cells were cultivated according to the same process as in Experimental Example 6, and centrifuged (100×g) for 10 minutes to harvest the cells. In order to measure the expression of tyrosinase by Western blotting, 100 μg of the cell extract was resolved on 10% SDS-PAGE, transferred to NC, and then, blocked with TBS containing 5% skim milk. Then, it was reacted with a primary antibody diluted to 1:2,500 (monoclonal anti-tyrosine hydroxylase clone Th-2) and a secondary antibody diluted to 1:5,000 (anti-mouse IgG), respectively, and washed with TBS containing 0.2% Tween-20, and then, photosensitized on an X-ray film using an ECL detection kit. Then, OD values were graphed using an image analysis program of LabWork™ (version 4.4.00.0).

[2] = system: B16F10, a mouse melanoma cell; assay: Melanin production in B16F10 cells; settings: mouse melanoma cell line; versus control group; FIG. 10
Description: (§2) Cells were cultivated according to the same process as in Experimental Example 6, and centrifuged (100×g) for 10 minutes to harvest the cells. In order to measure the production of melanin, 200 μg of the cell extract was added to 1 N NaOH (total 1 ml), allowed to stand at room temperature for 30 minutes, and then, absorbance was measured at 400 nm.
(§3) In order to measure the production of melanin, the cells were cultivated and harvested according to the same process as that of Experimental Example 6, and the production of melanin was measured according to the same process as that of Experimental Example 8.

tyrosinase [3] = assay: Expression of tyrosinase in B16F10 cells by Western blotting; settings: mouse melanoma cell line; versus control group; FIG. 9
Description: as §1

tyrosinase [4] = biological target: T1, tyrosinase (Homo sapiens, UniProt P14679); assay: Activity of tyrosinase in Sk-mel-31 cells; settings: 10 μg to 1 pg, versus control group, FIG. 7
T1 sequence (P14679 19-529): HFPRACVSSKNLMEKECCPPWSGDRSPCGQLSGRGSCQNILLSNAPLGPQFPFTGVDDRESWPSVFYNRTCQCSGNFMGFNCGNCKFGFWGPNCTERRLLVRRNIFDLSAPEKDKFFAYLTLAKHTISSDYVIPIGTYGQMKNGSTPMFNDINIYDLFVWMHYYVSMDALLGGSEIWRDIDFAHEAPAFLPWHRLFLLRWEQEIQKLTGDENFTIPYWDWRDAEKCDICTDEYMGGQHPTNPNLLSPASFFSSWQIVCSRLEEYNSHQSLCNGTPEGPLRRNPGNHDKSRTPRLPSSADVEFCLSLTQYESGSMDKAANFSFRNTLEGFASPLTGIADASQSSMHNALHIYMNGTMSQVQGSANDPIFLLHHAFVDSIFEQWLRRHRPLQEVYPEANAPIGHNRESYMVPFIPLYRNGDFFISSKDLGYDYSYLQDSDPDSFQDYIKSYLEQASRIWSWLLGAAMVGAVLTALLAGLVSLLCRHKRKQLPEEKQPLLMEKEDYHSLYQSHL
Description: (§4) In order to evaluate the effect of promoting black hair formation, the activity of tyrosinase was measured in Sk-mel-31, a human melanoma cell, and B16F10, a mouse melanoma cell. The cells were cultivated in an incubator at 37° C. (5% CO2 and 60% relative humidity) while maintaining a density of 1×10^6 cells/ml for Sk-mel-31 and 2×10^5 cells/ml for B16F10 in RPMI-1640 medium (containing 1% penicillin-streptomycin and 10% fetal bovine serum). The cells were stabilized in the incubator for 24 hours, and the culture medium containing FBS was replaced by FBS-free RPMI-1640. The cells were treated with mixed rare earth elements of 10 μg, 1 μg, 100 ng, 10 ng, 1 ng, 100 pg, […] and 1 pg, respectively, and individual rare earth elements of 10 ng. In order to measure the activity of tyrosinase, the cells were cultivated for a given time, centrifuged (100×g) for 10 minutes, and harvested. […] The cells were placed in an ice bath for one hour, and centrifuged with 40,000×g at 4° C. for 20 minutes to obtain a cell extract. 130 μl of 5 mM L-DOPA (L-3,4-dihydroxyphenylalanine) and 120 μl of 25 mM MBTH (3-methyl-2-benzothiazolinone hydrazone) were added to 250 μl of an analysis buffer containing 100 mM potassium phosphate (pH 7.1), 4% N,N-dimethylformamide and 0.1% (v/v) Triton X-100, and reacted in a thermostat at 37° C. for 5 minutes, and then, 100 μg of the cell extract was added thereto, and further reacted for 2 hours. Then, 500 μl of 1 M perchloric acid was added thereto and the mixture was centrifuged with 9,000×g at room temperature for 20 minutes. Then, the supernatant was taken and absorbance was measured at 505 nm.

tyrosinase [5] = biological target: T2, tyrosinase (Mus musculus, UniProt P11344); assay: Activity of tyrosinase in B16F10 cells; settings: 10 μg to 1 pg, versus control group, FIG. 8
T2 sequence (P11344 19-533): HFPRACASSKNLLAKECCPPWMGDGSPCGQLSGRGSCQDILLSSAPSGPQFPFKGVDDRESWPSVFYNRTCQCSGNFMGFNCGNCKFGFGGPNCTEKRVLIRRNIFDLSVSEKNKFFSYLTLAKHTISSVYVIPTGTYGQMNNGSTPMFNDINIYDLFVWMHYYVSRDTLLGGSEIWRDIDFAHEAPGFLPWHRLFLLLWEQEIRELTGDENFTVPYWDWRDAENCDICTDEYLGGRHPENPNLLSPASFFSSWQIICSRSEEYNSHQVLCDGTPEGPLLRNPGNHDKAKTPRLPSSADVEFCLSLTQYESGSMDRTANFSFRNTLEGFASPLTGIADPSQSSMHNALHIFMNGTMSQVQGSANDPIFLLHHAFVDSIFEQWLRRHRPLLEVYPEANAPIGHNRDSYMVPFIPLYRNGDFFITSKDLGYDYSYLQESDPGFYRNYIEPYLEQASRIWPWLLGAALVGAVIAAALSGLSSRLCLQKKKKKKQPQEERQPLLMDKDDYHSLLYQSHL
Description: as §4

[6] = system: Mouse embryo fibroblasts NIH 3T3; assay: MTT cell proliferation assay in NIH 3T3 fibroblasts
Description: Mouse embryo fibroblasts NIH 3T3 were cultivated in an incubator at 37° C. ([…], 5% CO2 and 60% humidity) while maintaining a density of 2×10^6 or 4×10^6 cells/ml in Dulbecco's modified Eagle's media (DMEM) supplemented with 10% fetal bovine serum (FBS) and 1% penicillin-streptomycin. Cell proliferation was measured by using MTT [3-(3,5-dimethyl-thiazol-2-yl)-2,5-diphenyltetrazolium bromide] assay. For MTT assay, the cells were plated in a 96-well plate at 2×10^3 cells/ml per well, and treated with a culture medium supplemented with 10% FBS. The cells were stabilized in the incubator for 24 hours, the culture medium supplemented with FBS was replaced by FBS-free DMEM, and the cells were treated with mixed rare earth elements of 10 μg, 1 μg, 100 ng, 10 ng, 1 ng, 100 pg, 10 pg and 1 pg, respectively, and individual rare earth elements of 10 ng. Then, the cells were cultivated for a given time, 50 μl per well of MTT (2 mg/l ml sterilized distilled water) was added thereto, and the mixture was reacted for 4 hours. The reaction mixture was treated with DMSO (dimethyl sulfoxide) and shaken for 30 minutes. Absorbance was measured at 540 nm using an ELISA reader (550, Bio-rad).

[7] = system: Sk-mel-31, a human melanoma cell; assay: Melanin production in Sk-mel-31 cells; settings: human melanoma cell line; versus control group; FIG. 10
Description: as §2, §3

| SMILES | expression of tyrosinase (tyrosinase [1]) | melanin production [2] | expression of tyrosinase (tyrosinase [3]) | tyrosinase activity (tyrosinase [4]) | tyrosinase activity (tyrosinase [5]) | cell proliferation compared with the non-treated group ([6]; 10 μg to 1 pg, FIG. 1) | melanin production [7] | cell proliferation compared with the non-treated group ([6]; each element of 10 ng, FIG. 2) |
| --- | --- | --- | --- | --- | --- | --- | --- | --- |
| [Eu] [Eu, europium] | substantially the same effect | substantially the same effect | substantially the same effect | increased; also recorded: substantially the same effect as mixed rare earth elements | increased; also recorded: substantially the same effect as mixed rare earth elements | increased | substantially the same effect |  |
| [Gd] [Gd, gadolinium] | relatively lower effect | relatively lower effect | relatively lower effect | increased; also recorded: relatively lower effect | increased; also recorded: relatively lower effect | increased | relatively lower effect | relatively inferior effect |
| [La] [La, lanthanum] | relatively lower effect | relatively lower effect | relatively lower effect | increased; also recorded: relatively lower effect | increased; also recorded: relatively lower effect | increased | relatively lower effect | relatively inferior effect |
| [Lu] [Lu, lutetium] | relatively lower effect | relatively lower effect | relatively lower effect | relatively lower effect | relatively lower effect |  | relatively lower effect | relatively inferior effect |
| [Nd] [Nd, neodymium] | relatively lower effect | relatively lower effect | relatively lower effect | relatively lower effect | relatively lower effect |  | relatively lower effect | relatively inferior effect |
| [Sm] [Sm, samarium] | relatively lower effect | relatively lower effect | relatively lower effect | relatively lower effect | relatively lower effect |  | relatively lower effect | relatively inferior effect |
